# Experimental data as given in patent US8524899B2, “Alternative heterocycles for DNA recognition” (California Institute of Technology, priority 2003, dated 2013).
# What was measured:
# Type in all cases: binding
# [1] = test system: 32P-3′-labeled EcoRI/PvuII restriction fragment of plasmid pDR1 (sites 5′-TGTCTA-3′, 5′-TGTTTA-3′, 5′-TGTATA-3′, 5′-TGTGTA-3′); experiment: Quantitative DNase I footprint titration on pDR1 restriction fragment
# Method: FIG. 4 illustrates the equilibrium association constants Ka[M^−1] for Polyamide Oligomers A-C, N, Q, and P. The reported association constants are the average values obtained from three DNase I footprint titration experiments, with the standard deviation for each data set indicated in the experiments. Assays were carried out at 22° C. at pH 7.0 in the presence of 10 mM Tris-HCl, 10 mM KCl, 10 mM MgCl2, and 5 mM CaCl2 with an equilibration time of 12 h. Specificities are give in brackets under the Ka values and calculated as Ka (match)/Ka (mismatch).
# To examine whether an imidazo[4,5-b]pyridine unit Ip can replace a five-membered imidazole ring Im within an eight-ring hairpin polyamide regarding DNA binding affinity and specificity, polyamide oligomer A and its related all five-membered ring hairpin oligomer N were evaluated by DNase I footprint titrations under identical conditions. Quantitative DNase I footprint titration experiments (10 mM Tris-HCl, 10 mM KCl, 10 mM MgCl2, 5 mM CaCl2, pH 7.0, 22° C., equilibration time: 12 h) were performed on a ^32P-3′-labeled EcoRI/PvuII restriction fragment of plasmid pDR1 0 (FIG. 2). This DNA fragment contains four 6-base pair binding sites which differ at one position, 5′-TGTCTA-3′,5′-TGTTTA-3′,5′-TGTATA-3′, and 5′-TGTGTA-3′. The latter one was regarded as the possible match site having a G•C base pair under the Ip/Py or Im/Py pair, respectively.
# Construction of plasmid DNA. The plasmid pDR1 was constructed by hybridization of the two oligonucleotides 5′-GATCAGGCTGTC-[…]-GCTGCTGTTTATGGACG-GCTGCTGTATATGGACGG-CTGGGCGA-3′ (SEQ ID NO:1) and 5′-AGCTTCGC-[…]-[…]-3′ (SEQ ID NO:2) followed by ligation into the BamHI/HinDIII restriction fragment of pUC19 using T4 DNA ligase. The resultant plasmid was then used to transform E. coli XL-1 Blue Supercompetent cells. Ampicillin-resistant white colonies were selected from 25 mL Luria-Bertani agar plates containing […] ampicillin, treated with XGAL and IPTG solutions and grown overnight at 37° C. Cells were harvested after overnight growth at 37° C. Large-scale plasmid purification was performed with Qiagen, purification kits. The presence of the desired insert was determined by dideoxy sequencing. DNA concentrations were determined at 260 nm using the relationship 1 OD unit) 50 μg/mL duplex DNA.
# Preparation of 3′-End-Labeled DNA Restriction Fragments. The plasmid pDR1 was linearized with EcoRI and PVuII and treated with the Klenow fragment of DNA […], [R-^32P]-dATP, and [R-^32P]-TTP for 3′-end labeling. The labeled 3′-fragment was purified on a 7% nondenaturing polyacrylamide gel (5% cross-linkage) and the desired 284 base pair band isolated after visualization by autoradiography. The DNA was precipitated with 2-propanol, the pellet washed, lyophilized, and resuspended in RNase-free H2O. Chemical sequencing reactions were performed according to published protocols. (Troschütz, R.; Lückel, A. Arch. Pharm., 325, 617-619, 1992.)
# DNase I Footprinting. All reactions were carried out in a volume of 400 μL according to published procedures. Quantitation by storage phosphor autoradiography and determination of equilibrium association constants were as previously described. (Trauger, J. W.; Dervan, P. B. Methods Enzymol., 340, 450-466, 2001.)
# [2] = test system: EcoRI/PvuII restriction fragment of plasmid pPWF2 (5′-TGRACA-3′); experiment: Quantitative DNase I footprint titration, R•S position, plasmid pPWF2
# Excerpt: (§1) FIG. 9 illustrates the equilibrium association constants Ka[M^−1] and specificities for polyamide oligomers D-F, R, S, and V on plasmids pPWF2 and pCAB1 (R•S position).
# (§2) When replacing PyPy, PyIm, and PyHp dimers with BiPy (as in oligomer D), BiIm (as in oligomer E), and BiHp constructs (as in oligomer F), respectively, the question arises whether a) the benzimidazole ring is capable of cooperating with the imidazole ring on the opposite strand of the hairpin polyamide to specifically recognize a C•G base pair according to the binding model and the general pairing rules, and b) whether the steric and electronic peculiarities of the benzimidazole ring disturb the binding ability of the adjacent heterocycle. In order to address this question for the given polyamide design, the recognition behavior of the benzimidazole-containing polyamides was probed in two of the six base pair positions R•S and X•Y of the recognition sequence (5′-TGRACA-3′ and 5′-TGGXCA-3′ for oligomers D and F; 5′-TGRCAA-3′ and 5′-TGGXAA-3′ for oligomer E; FIG. 6) and compared with the DNA-binding ability of the related all five-membered oligomers R, S, and V at the same recognition sequences.
# (§3) Evaluation of the DNA recognition properties of the new ligands oligomers D, E, and F at the imidazole/benzimidazole position (referred to as R•S position) should reveal the sequence preference of the benzimidazole ring. The binding properties at the neighboring ring position (referred to as X•Y position) were expected to disclose whether the recognition capabilities of the adjacent internal five-membered ring are disturbed by the benzimidazole moiety. To examine the consequences of the ring replacement for DNA binding in terms of affinity and specificity, the benzimidazole-containing hairpin polyamides oligomers D, E, and F were evaluated by quantitative DNase I footprint titrations and the results compared to those from related oligomers R, S, and V, which were investigated under identical conditions. Quantitative DNase I footprint titration experiments (10 mm Tris-HCl, 10 mm KCl, 10 mm MgCl2, 5 mm CaCl2, pH 7.0, 22° C., equilibration time: 12 h) were performed on ^32P-3′-labeled EcoRI/PvuII restriction fragments of plasmids pPWF2 and pCAB1 (to probe the R•S position, FIG. 7); and pAU2 and pCAB2 (to probe the X•Y position, FIG. 8). Equilibrium association constants (Ka) for the polyamide oligomers at the binding sites of interest were determined as described above in Example 3.
# [3] = test system: EcoRI/PvuII restriction fragment of plasmid pAU2 (5′-TGGXCA-3′); experiment: Quantitative DNase I footprint titration, X•Y position, plasmid pAU2; details: match and mismatch sites
# Excerpt: FIG. 10 illustrates the equilibrium association constants Ka[M^−1] and specificities for polyamide oligomers D-F, R, S, and V on plasmids pAU2 and pCAB2 (X•Y position). […]
# as §3, with “The binding properties at the neighboring ring position (referred to as X•Y position) were expected to disclose whether the recognition capabilities of the adjacent internal five-membered ring are disturbed by the benzimidazole moiety.” left out
# [4] = test system: EcoRI/PvuII restriction fragment of plasmid pCAB1 (5′-TGRCAA-3′); experiment: Quantitative DNase I footprint titration, R•S position, plasmid pCAB1
# Excerpt: as §1, §2, §3
# [5] = test system: EcoRI/PvuII restriction fragment of plasmid pCAB2 (5′-TGGXAA-3′); experiment: Quantitative DNase I footprint titration, X•Y position, plasmid pCAB2
# Excerpt: FIG. 10 illustrates the equilibrium association constants Ka[M^−1] and specificities for polyamide oligomers D-F, R, S, and V on plasmids pAU2 and pCAB2 (X•Y position).
# When replacing PyPy, PyIm, and PyHp dimers with BiPy (as in oligomer D), BiIm (as in oligomer E), and BiHp constructs (as in oligomer F), respectively, the question arises whether a) the benzimidazole ring is capable of cooperating with the imidazole ring on the opposite strand of the hairpin polyamide to specifically recognize a C•G base pair according to the binding model and the general pairing rules, and b) whether the steric and electronic peculiarities of the benzimidazole ring disturb the binding ability of the adjacent heterocycle. […]
# as §3, with “The binding properties at the neighboring ring position (referred to as X•Y position) were expected to disclose whether the recognition capabilities of the adjacent internal five-membered ring are disturbed by the benzimidazole moiety.” left out
# [6] = test system: 5′-TGGXCA-3′ (X=A, T, G, C); experiment: DNase I footprint titration, single Hz/Py, Py/Hz, Hz/Bi, Bi/Hz pair position; details: for preference for T•A over A•T: Hz/Py (G), Hz/Bi (I) pair; for preference for A•T over T•A: Py/Hz (J), Bi/Hz (L) pair
# Method: FIG. 15 is a table showing the association equilibrium constant Ka[M^−1] for polyamide oligomers G and J. The reported association constants are the average values obtained from three DNase I footprint titration experiments, with the standard deviation given in parenthesis. Assays were carried out at 22° C. at pH 7.0 in the presence of 10 mM Tris-HCl, 10 mM KCl, 10 mM MgCl2, and 5 mM CaCl2 at pH 7.0.
# FIG. 19 is a a table showing the association equilibrium constant Ka[M^−1] for polyamide oligomers I and L. The reported association constants are the average values obtained from three DNase I footprint titration experiments, with the standard deviation given in parenthesis. Assays were carried out at 22° C. at pH 7.0 in the presence of 10 mM Tris-HCl, 10 mM KCl, 10 mM MgCl2, and 5 mM CaCl2 at pH 7.0.
# For polyamides Im-Im-Hz-Py-γ-Im-Py-Py-Py-β-Dp (oligomer G) and Im-Im-Py-Py-γ-Im-Hz-Py-Py-β-Dp (oligomer J), the DNA-sequence specificity at a single ring-pairing position (bolded in the sequences listed above) was determined by varying a single DNA base pair within the parent-sequence context, 5′-TGGXCA-3′, to all four Watson-Crick base pairs (X=A, T, G, C) and comparing the relative affinities of the resulting complexes (FIG. 14). The variable base-pair position was installed opposite the novel Hz/Py and Py/Hz pairs, designed to target T•A and A•T respectively. Equilibrium association constants (Ka) for polyamide oligomers containing Py/Py, Hp/Py and Py/Hp pairs have been reported and are included for comparison with values presented here (FIG. 15).
# The variable base-pair position was installed opposite the novel Hz/Bi and Bi/Hz pairs, designed to target T•A and A•T respectively.
# Footprinting Experiments.—Plasmids pDHN1 and pDEH10 were constructed and 5′-radiolabeled as previously described. (Nguyen, D. H. et al., Bioorg. Med. Chem., 9: 7-17, 2001; Melander, C. et al., Chem. Eur. J., 24: 4487-4497, 2000.) DNase I footprint titrations were performed according to standard protocols. (Trauger, J. W. et al., Methods Enzymol., 340: 450-466, 2001.)
structure (smiles),measurement,setting,value
CNC(=O)c1cc(NC(=O)c2cc(NC(=O)c3cc(NC(=O)c4cc(NC(=O)[C@H](N)CCNC(=O)c5cc(NC(=O)c6ccc7nc(-c8cc(NC(=O)c9nccn9C)cn8C)[nH]c7n6)cn5C)cn4C)cn3C)cn2C)cn1C [A],specificity of match site versus A•T and T•A sites,[1]; G•C match vs A•T and T•A sites,similar
same,preference for match site 5′-TGTGTA-3′ versus the C•G site,[1]; G•C match vs C•G site,slight decrease
same,higher affinity than related all five-membered ring oligomer,[1]; site 5′-TGTGTA-3′,5 fold
same,equilibrium association constant Ka,"[1]; site 5′-TGTGTA-3′ (G•C), pH 7.0, 22° C., equilibration 12 h",1.2e+10 M⁻¹
CNC(=O)c1cc(NC(=O)c2cc(NC(=O)c3cc(NC(=O)c4cc(NC(=O)[C@H](N)CCNC(=O)c5cc(NC(=O)c6ccc7nc(-c8cc(NC(=O)c9nccn9C)cn8C)[nH]c7c6)cn5C)cn4C)cn3C)cn2C)cn1C [C],"binding site preference, affinity and specificity compared with related all five-membered ring oligomer","[1]; B vs Q, C vs P",same binding site preference
CNC(=O)c1cc(NC(=O)c2ccc3nc(-c4cc(NC(=O)c5nc(NC(=O)[C@H](N)CCNC(=O)c6cc(NC(=O)c7cc(NC(=O)c8nc(NC(=O)c9nccn9C)cn8C)cn7C)cn6C)cn5C)cn4C)[nH]c3c2)cn1C [D],"match site Ka, R•S position","[2]; 5′-TGRACA-3′ match site, pH 7.0, 22° C., 12 h",4.9e+10 M⁻¹
same,"match site affinity compared with related all five-membered oligomer, R•S position","[2]; D vs R, F vs V",comparable
same,"single base pair mismatch specificities compared with related oligomer, R•S position","[2]; D vs R, F vs V",lower by roughly one order of magnitude
same,"binding affinities and specificities compared with related oligomers R, V, X•Y position",[3],same order of magnitude
CNC(=O)c1cc(NC(=O)c2ccc3nc(-c4nc(NC(=O)c5cc(NC(=O)[C@H](N)CCNC(=O)c6cc(NC(=O)c7cc(NC(=O)c8nc(NC(=O)c9nccn9C)cn8C)cn7C)cn6C)cn5C)cn4C)[nH]c3c2)cn1C [E],"match site Ka, R•S position","[4]; 5′-TGRCAA-3′ match site, pH 7.0, 22° C., 12 h",3.1e+10 M⁻¹
same,"match site affinity compared with related all five-membered oligomer, R•S position",[4]; E vs S,six to seven-fold higher
same,"match site/mismatch site discrimination compared with related oligomer, R•S position",[4]; R=A,comparable
same,"match site/mismatch site discrimination compared with related oligomer, R•S position",[4]; R=T or C,at least ten-fold lower
same,"match site Ka, X•Y position","[5]; 5′-TGGXAA-3′ match site, pH 7.0, 22° C., 12 h",1.9e+10 M⁻¹
same,"match site affinity compared with related oligomer S, X•Y position",[5]; E vs S,six-fold higher
same,"single base pair mismatch specificities compared with related oligomer S, X•Y position",[5]; E vs S,mildly diminished
CN(C)CCCNC(=O)CCNC(=O)c1cc(NC(=O)c2cc(NC(=O)c3cc(NC(=O)c4nc(NC(=O)CCCNC(=O)c5cc(NC(=O)c6ccc7nc(-c8nc(NC(=O)c9nccn9C)cn8C)[nH]c7c6O)cn5C)cn4C)cn3C)cn2C)cn1C [G],"selectivity for A,T over G,C",[6],more than 50 fold
same,preference for T•A over A•T,[6],10 fold
CN(C)CCCNC(=O)CCNC(=O)c1cc(NC(=O)c2cc(NC(=O)c3ccc4nc(-c5nc(NC(=O)CCCNC(=O)c6cc(NC(=O)c7ccc8nc(-c9nc(NC(=O)c%10nccn%10C)cn9C)[nH]c8c7O)cn6C)cn5C)[nH]c4c3)cn2C)cn1C [I],"selectivity for A,T over G,C",[6],13 fold
same,preference for T•A over A•T,[6],2.5 fold
CN(C)CCCNC(=O)CCNC(=O)c1cc(NC(=O)c2cc(NC(=O)c3ccc4nc(-c5nc(NC(=O)CCCNC(=O)c6cc(NC(=O)c7cc(NC(=O)c8nc(NC(=O)c9nccn9C)cn8C)cn7C)cn6C)cn5C)[nH]c4c3O)cn2C)cn1C [J],"selectivity for A,T over G,C",[6],more than 30 fold
same,preference for A•T over T•A,[6],more than 4 fold
CN(C)CCCNC(=O)CCNC(=O)c1cc(NC(=O)c2cc(NC(=O)c3ccc4nc(-c5nc(NC(=O)CCCNC(=O)c6cc(NC(=O)c7ccc8nc(-c9nc(NC(=O)c%10nccn%10C)cn9C)[nH]c8c7)cn6C)cn5C)[nH]c4c3O)cn2C)cn1C [L],"selectivity for A,T over G,C",[6],4.5 fold
same,Ka (affinity),"[6]; 5′-TGGXCA-3′, 22° C., pH 7.0",high affinity
same,preference for A•T over T•A,[6],2.5 fold
